Results as given in PMC9481151, “Discovery of new symmetrical and asymmetrical nitrile-containing 1,4-dihydropyridine derivatives as dual kinases and P-glycoprotein inhibitors: synthesis, in vitro assays, and in silico studies” (Journal of Enzyme Inhibition and Medicinal Chemistry, 2022).
Several values for one entry are separate records, joined by “and”; a condition that tells them apart may be missing. Equal values may be shown once.

Experiments:
K-562 = test: NCI single dose (10 µM) SRB screen; type: cell-based, human; conditions: leukaemia, 48 h
MOLT-4 = test: NCI single dose (10 µM) SRB screen; type: cell-based, human; conditions: leukaemia, 48 h
SR = test: NCI single dose (10 µM) SRB screen; type: cell-based, human; conditions: leukaemia, 48 h
EKVX = test: NCI single dose (10 µM) SRB screen; type: cell-based, human; conditions: non-small cell lung cancer, 48 h
HOP-92 = test: NCI single dose (10 µM) SRB screen; type: cell-based, human; conditions: non-small cell lung cancer, 48 h
NCI-H226 = test: NCI single dose (10 µM) SRB screen; type: cell-based, human; conditions: non-small cell lung cancer, 48 h
NCI-H23 = test: NCI single dose (10 µM) SRB screen; type: cell-based, human; conditions: non-small cell lung cancer, 48 h
NCI-H322M = test: NCI single dose (10 µM) SRB screen; type: cell-based; conditions: non-small cell lung cancer, 48 h
NCI-H460 = test: NCI single dose (10 µM) SRB screen; type: cell-based, human; conditions: non-small cell lung cancer, 48 h
NCI-H522 = test: NCI single dose (10 µM) SRB screen; type: cell-based, human; conditions: non-small cell lung cancer, 48 h
COLO 205 = test: NCI single dose (10 µM) SRB screen; type: cell-based, human; conditions: colon cancer, 48 h
HCC-2998 = test: NCI single dose (10 µM) SRB screen; type: cell-based, human; conditions: colon cancer, 48 h
HCT-116 = test: NCI single dose (10 µM) SRB screen; type: cell-based, human; conditions: colon cancer, 48 h
HCT-15 = test: NCI single dose (10 µM) SRB screen; type: cell-based, human; conditions: colon cancer, 48 h
HT29 = test: NCI single dose (10 µM) SRB screen; type: cell-based, human; conditions: colon cancer, 48 h
KM12 = test: NCI single dose (10 µM) SRB screen; type: cell-based, human; conditions: colon cancer, 48 h
SW-620 = test: NCI single dose (10 µM) SRB screen; type: cell-based, human; conditions: colon cancer, 48 h
SF-268 = test: NCI single dose (10 µM) SRB screen; type: cell-based, human; conditions: CNS cancer, 48 h
SF-539 = test: NCI single dose (10 µM) SRB screen; type: cell-based, human; conditions: CNS cancer, 48 h
SNB-19 = test: NCI single dose (10 µM) SRB screen; type: cell-based, human; conditions: CNS cancer, 48 h
U251 = test: NCI single dose (10 µM) SRB screen; type: cell-based, human; conditions: CNS cancer, 48 h
LOX IMVI = test: NCI single dose (10 µM) SRB screen; type: cell-based, human; conditions: melanoma, 48 h
MALME-3M = test: NCI single dose (10 µM) SRB screen; type: cell-based, human; conditions: melanoma, 48 h
M14 = test: NCI single dose (10 µM) SRB screen; type: cell-based, human; conditions: melanoma, 48 h
SK-MEL-2 = test: NCI single dose (10 µM) SRB screen; type: cell-based, human; conditions: melanoma, 48 h
SK-MEL-5 = test: NCI single dose (10 µM) SRB screen; type: cell-based, human; conditions: melanoma, 48 h
UACC-257 = test: NCI single dose (10 µM) SRB screen; type: cell-based, human; conditions: melanoma, 48 h
UACC-62 = test: NCI single dose (10 µM) SRB screen; type: cell-based, human; conditions: melanoma, 48 h
IGROV1 = test: NCI single dose (10 µM) SRB screen; type: cell-based, human; conditions: ovarian cancer, 48 h
OVCAR-3 = test: NCI single dose (10 µM) SRB screen; type: cell-based, human; conditions: ovarian cancer, 48 h
OVCAR-4 = test: NCI single dose (10 µM) SRB screen; type: cell-based, human; conditions: ovarian cancer, 48 h
OVCAR-5 = test: NCI single dose (10 µM) SRB screen; type: cell-based, human; conditions: ovarian cancer, 48 h
OVCAR-8 = test: NCI single dose (10 µM) SRB screen; type: cell-based, human; conditions: ovarian cancer, 48 h
NCI/ADR-RES = test: NCI single dose (10 µM) SRB screen; type: cell-based, human; conditions: ovarian cancer, 48 h
786-0 = test: NCI single dose (10 µM) SRB screen; type: cell-based, human; conditions: renal cancer, 48 h
A498 = test: NCI single dose (10 µM) SRB screen; type: cell-based, human; conditions: renal cancer, 48 h
ACHN = test: NCI single dose (10 µM) SRB screen; type: cell-based, human; conditions: renal cancer, 48 h
CAKI-1 = test: NCI single dose (10 µM) SRB screen; type: cell-based, human; conditions: renal cancer, 48 h
RXF 393 = test: NCI single dose (10 µM) SRB screen; type: cell-based, human; conditions: renal cancer, 48 h
SN12C = test: NCI single dose (10 µM) SRB screen; type: cell-based, human; conditions: renal cancer, 48 h
TK-10 = test: NCI single dose (10 µM) SRB screen; type: cell-based, human; conditions: renal cancer, 48 h
UO-31 = test: NCI single dose (10 µM) SRB screen; type: cell-based, human; conditions: renal cancer, 48 h
PC-3 = test: NCI single dose (10 µM) SRB screen; type: cell-based, human; conditions: prostate cancer, 48 h
DU-145 = test: NCI single dose (10 µM) SRB screen; type: cell-based, human; conditions: prostate cancer, 48 h
MCF7 = test: NCI single dose (10 µM) SRB screen; type: cell-based, human; conditions: breast cancer, 48 h
MDA-MB-231 = test: NCI single dose (10 µM) SRB screen; type: cell-based, human; conditions: breast cancer, 48 h
HS578T = test: NCI single dose (10 µM) SRB screen; type: cell-based, human; conditions: breast cancer, 48 h
T-47D = test: NCI single dose (10 µM) SRB screen; type: cell-based, human; conditions: breast cancer, 48 h
MDA-MB-468 = test: NCI single dose (10 µM) SRB screen; type: cell-based, human; conditions: breast cancer, 48 h
NCI 60 cancer cell lines = test: NCI single dose (10 µM) SRB screen, mean over panel; type: cell-based, human; conditions: mean over 60 cell lines, 48 h
Escherichia coli = test: Agar well diffusion method; conditions: for zone of inhibition at 1000 µg/mL: Escherichia coli, 24 h, read-out: Diameter of inhibition zone, E. coli; for % activity index, E. coli: relative to ciprofloxacin
Candida albicans = test: Agar well diffusion method; conditions: for zone of inhibition at 1000 µg/mL: Candida albicans, 24 h, read-out: Diameter of inhibition zone, C. albicans; for % activity index, C. albicans: relative to clotrimazole
Aspergillus flavus = test: Agar well diffusion method; conditions: for zone of inhibition at 1000 µg/mL: Aspergillus flavus, 24 h, read-out: Diameter of inhibition zone, A. flavus; for % activity index, A. flavus: relative to clotrimazole

COC(=O)C1=C(C)NC(C)=C(C(=O)OC(C)C)C1c1cccc(C#N)c1 (racemic) [Compound 2a, (±)-3-Isopropyl 5-methyl 4-(3-cyanophenyl)-2,6-dimethyl-1,4-dihydropyridine-3,5-dicarboxylate]
GI% K-562 (K-562): 16%
GI% MOLT-4 (MOLT-4): 16%
GI% SR (SR): – (Only GI% ≥ 10 are shown)
GI% EKVX (EKVX): – (Only GI% ≥ 10 are shown)
GI% HOP-92 (HOP-92): – (Only GI% ≥ 10 are shown)
GI% NCI-H226 (NCI-H226): – (Only GI% ≥ 10 are shown)
GI% NCI-H23 (NCI-H23): – (Only GI% ≥ 10 are shown)
GI% NCI-H322M (NCI-H322M): – (Only GI% ≥ 10 are shown)
GI% NCI-H460 (NCI-H460): – (Only GI% ≥ 10 are shown)
GI% NCI-H522 (NCI-H522): 14%
GI% COLO 205 (COLO 205): – (Only GI% ≥ 10 are shown)
GI% HCC-2998 (HCC-2998): – (Only GI% ≥ 10 are shown)
GI% HCT-116 (HCT-116): – (Only GI% ≥ 10 are shown)
GI% HCT-15 (HCT-15): – (Only GI% ≥ 10 are shown)
GI% HT29 (HT29): – (Only GI% ≥ 10 are shown)
GI% KM12 (KM12): – (Only GI% ≥ 10 are shown)
GI% SW-620 (SW-620): – (Only GI% ≥ 10 are shown)
GI% SF-268 (SF-268): – (Only GI% ≥ 10 are shown)
GI% SF-539 (SF-539): – (Only GI% ≥ 10 are shown)
GI% SNB-19 (SNB-19): – (Only GI% ≥ 10 are shown)
GI% U251 (U251): – (Only GI% ≥ 10 are shown)
GI% LOX IMVI (LOX IMVI): – (Only GI% ≥ 10 are shown)
GI% MALME-3M (MALME-3M): – (Only GI% ≥ 10 are shown)
GI% M14 (M14): – (Only GI% ≥ 10 are shown)
GI% SK-MEL-2 (SK-MEL-2): – (Only GI% ≥ 10 are shown)
GI% SK-MEL-5 (SK-MEL-5): – (Only GI% ≥ 10 are shown)
GI% UACC-257 (UACC-257): – (Only GI% ≥ 10 are shown)
GI% UACC-62 (UACC-62): – (Only GI% ≥ 10 are shown)
GI% IGROV1 (IGROV1): – (Only GI% ≥ 10 are shown)
GI% OVCAR-3 (OVCAR-3): – (Only GI% ≥ 10 are shown)
GI% OVCAR-4 (OVCAR-4): – (Only GI% ≥ 10 are shown)
GI% OVCAR-5 (OVCAR-5): – (Only GI% ≥ 10 are shown)
GI% OVCAR-8 (OVCAR-8): – (Only GI% ≥ 10 are shown)
GI% NCI/ADR-RES (NCI/ADR-RES): – (Only GI% ≥ 10 are shown)
GI% 786-0 (786-0): – (Only GI% ≥ 10 are shown)
GI% A498 (A498): 11%
GI% ACHN (ACHN): – (Only GI% ≥ 10 are shown)
GI% CAKI-1 (CAKI-1): 11%
GI% RXF 393 (RXF 393): – (Only GI% ≥ 10 are shown)
GI% SN12C (SN12C): – (Only GI% ≥ 10 are shown)
GI% TK-10 (TK-10): – (Only GI% ≥ 10 are shown)
GI% UO-31 (UO-31): – (Only GI% ≥ 10 are shown)
GI% PC-3 (PC-3): 16%
GI% DU-145 (DU-145): – (Only GI% ≥ 10 are shown)
GI% MCF7 (MCF7): – (Only GI% ≥ 10 are shown)
GI% MDA-MB-231 (MDA-MB-231): – (Only GI% ≥ 10 are shown)
GI% HS578T (HS578T): – (Only GI% ≥ 10 are shown)
GI% T-47D (T-47D): – (Only GI% ≥ 10 are shown)
GI% MDA-MB-468 (MDA-MB-468): – (Only GI% ≥ 10 are shown)
Mean GI% (NCI 60 cancer cell lines): 0%
zone of inhibition at 1000 µg/mL (Escherichia coli): 14 mm
% activity index, E. coli (Escherichia coli): 53.8%
zone of inhibition at 1000 µg/mL (Candida albicans): 21 mm
% activity index, C. albicans (Candida albicans): 77% and 77.8%
zone of inhibition at 1000 µg/mL (Aspergillus flavus): 22 mm
% activity index, A. flavus (Aspergillus flavus): 88%

CC1=C(C(=O)OCc2ccccc2)C(c2cccc(C#N)c2)C(C(=O)OCc2ccccc2)=C(C)N1 [Compound 1g, Dibenzyl 4-(3-cyanophenyl)-2,6-dimethyl-1,4-dihydropyridine-3,5-dicarboxylate]
GI% K-562 (K-562): 69%
GI% MOLT-4 (MOLT-4): 68%
GI% SR (SR): 57%
GI% EKVX (EKVX): 50%
GI% HOP-92 (HOP-92): 42%
GI% NCI-H226 (NCI-H226): 46%
GI% NCI-H23 (NCI-H23): 23%
GI% NCI-H322M (NCI-H322M): 15%
GI% NCI-H460 (NCI-H460): 64%
GI% NCI-H522 (NCI-H522): 46%
GI% COLO 205 (COLO 205): 47%
GI% HCC-2998 (HCC-2998): – (Only GI% ≥ 10 are shown)
GI% HCT-116 (HCT-116): 76%
GI% HCT-15 (HCT-15): 72%
GI% HT29 (HT29): 48%
GI% KM12 (KM12): 45%
GI% SW-620 (SW-620): 65%
GI% SF-268 (SF-268): 38%
GI% SF-539 (SF-539): 35%
GI% SNB-19 (SNB-19): 32%
GI% U251 (U251): 49%
GI% LOX IMVI (LOX IMVI): 65%
GI% MALME-3M (MALME-3M): 32%
GI% M14 (M14): 35%
GI% SK-MEL-2 (SK-MEL-2): 19%
GI% SK-MEL-5 (SK-MEL-5): 55%
GI% UACC-257 (UACC-257): 36%
GI% UACC-62 (UACC-62): 38%
GI% IGROV1 (IGROV1): 45%
GI% OVCAR-3 (OVCAR-3): 23%
GI% OVCAR-4 (OVCAR-4): 33%
GI% OVCAR-5 (OVCAR-5): 19%
GI% OVCAR-8 (OVCAR-8): 41%
GI% NCI/ADR-RES (NCI/ADR-RES): 45%
GI% 786-0 (786-0): 32%
GI% A498 (A498): 21%
GI% ACHN (ACHN): 52%
GI% CAKI-1 (CAKI-1): 56%
GI% RXF 393 (RXF 393): 36%
GI% SN12C (SN12C): 32%
GI% TK-10 (TK-10): – (Only GI% ≥ 10 are shown)
GI% UO-31 (UO-31): 34%
GI% PC-3 (PC-3): 76%
GI% DU-145 (DU-145): 26%
GI% MCF7 (MCF7): 53%
GI% MDA-MB-231 (MDA-MB-231): 37%
GI% HS578T (HS578T): 35%
GI% T-47D (T-47D): 53%
GI% MDA-MB-468 (MDA-MB-468): 62%
Mean GI% (NCI 60 cancer cell lines): 41%
zone of inhibition at 1000 µg/mL (Escherichia coli): 10 mm
% activity index, E. coli (Escherichia coli): 38.5%
zone of inhibition at 1000 µg/mL (Candida albicans): 10 mm
% activity index, C. albicans (Candida albicans): 37%
zone of inhibition at 1000 µg/mL (Aspergillus flavus): 14 mm
% activity index, A. flavus (Aspergillus flavus): 56%
